Tests used:
[1] = Average particle diameter by BET type specific surface area analyzer; assay type: physicochemical; conditions: for average particle diameter of the resulting particles: after pulverization; for average particle diameter of the resulting particles / average particle diameter of the starting organic compound: BET method; for average particle diameter of the starting organic compound: before pulverization; for Ave. Diameter after pulverization (nm): as Example 3
Text: The average particle diameter of the particles can be measured by conventionally used particle size measurement techniques such as a microscopic method, a screening method, a Coulter counter method, a sedimentation method, an air permeation method, and a gas adsorption method, but the average particle diameter according to the present invention means the average particle diameter measured according to a gas adsorption method. The method is based on the principle that when molecules or ions having a known size are adsorbed to the surface of the particles, the particles adsorb the molecules or ion according to the specific surface area. Thus, the method is a method of determining the specific surface area using an adsorption isotherm equation or an isotherm, and calculating the average particle diameter, and the method is excellent as a method for measuring the average particle diameter of finely pulverized particles. Next, the present invention will be described in more detail by way of Examples, but the present invention is not intended to be limited to the following Examples. The measurement of the average particle size was all carried out using a BET type specific surface area analyzer (Macsorb type MH-1201, manufactured by Mountech Co., Ltd.).

[2] = Crystallinity by X-ray diffraction; assay type: physicochemical; conditions: D8 Discover X-ray diffraction apparatus
Text: Each crystallinity of the quinolinone derivative before being finely pulverized, the quinolinone derivative obtained in Example 8 and the quinolinone derivative obtained in Comparative Example 8, was examined using an X-ray diffraction measurement apparatus (D8 Discover, manufactured by Bruker AXS, Inc.

average particle diameter of the resulting particles [1] | average particle diameter of the starting organic compound [1] | SMILES | other results
730 nm |  | CCC(=O)OCC(=O)[C@@]1(OC(=O)CC)[C@@H](C)C[C@H]2[C@@H]3CCC4=CC(=O)C=C[C@]4(C)[C@@]3(Cl)[C@@H](O)C[C@@]21C [Comparative Example 5, beclometasone dipropionate] | 
438 nm |  | CCC(=O)O[C@]1(C(=O)SCF)[C@H](C)C[C@H]2[C@@H]3C[C@H](F)C4=CC(=O)C=C[C@]4(C)[C@@]3(F)[C@@H](O)C[C@@]21C [Comparative Example 10, fluticasone propionate] | 
114 nm |  | CCC(=O)O[C@]1(C(=O)SCF)[C@H](C)C[C@H]2[C@@H]3C[C@H](F)C4=CC(=O)C=C[C@]4(C)[C@@]3(F)[C@@H](O)C[C@@]21C [Example 17, fluticasone propionate] | 
108 nm |  | CCC(=O)O[C@]1(C(=O)SCF)[C@H](C)C[C@H]2[C@@H]3C[C@H](F)C4=CC(=O)C=C[C@]4(C)[C@@]3(F)[C@@H](O)C[C@@]21C [Example 18, fluticasone propionate] | 
103 nm |  | CCC(=O)O[C@]1(C(=O)SCF)[C@H](C)C[C@H]2[C@@H]3C[C@H](F)C4=CC(=O)C=C[C@]4(C)[C@@]3(F)[C@@H](O)C[C@@]21C [Example 19, fluticasone propionate] | 
94 nm |  | CCC(=O)O[C@]1(C(=O)SCF)[C@H](C)C[C@H]2[C@@H]3C[C@H](F)C4=CC(=O)C=C[C@]4(C)[C@@]3(F)[C@@H](O)C[C@@]21C [Example 20, fluticasone propionate] | 
92 nm |  | CCC(=O)O[C@]1(C(=O)SCF)[C@H](C)C[C@H]2[C@@H]3C[C@H](F)C4=CC(=O)C=C[C@]4(C)[C@@]3(F)[C@@H](O)C[C@@]21C [Example 21, fluticasone propionate] | 
70 nm |  | CCC(=O)O[C@]1(C(=O)SCF)[C@H](C)C[C@H]2[C@@H]3C[C@H](F)C4=CC(=O)C=C[C@]4(C)[C@@]3(F)[C@@H](O)C[C@@]21C [Example 22, fluticasone propionate] | 
109 nm |  | CCC(=O)O[C@]1(C(=O)SCF)[C@H](C)C[C@H]2[C@@H]3C[C@H](F)C4=CC(=O)C=C[C@]4(C)[C@@]3(F)[C@@H](O)C[C@@]21C [Example 23, fluticasone propionate] | 
 | 1,820 nm | CCC(=O)OCC(=O)[C@@]1(OC(=O)CC)[C@@H](C)C[C@H]2[C@@H]3CCC4=CC(=O)C=C[C@]4(C)[C@@]3(Cl)[C@@H](O)C[C@@]21C [beclometasone dipropionate] | 
 | 7,850 nm | CCC(=O)O[C@]1(C(=O)SCF)[C@H](C)C[C@H]2[C@@H]3C[C@H](F)C4=CC(=O)C=C[C@]4(C)[C@@]3(F)[C@@H](O)C[C@@]21C [fluticasone propionate] | 

More lines, now with the values behind:

SMILES | average particle diameter of the resulting particles [1] | average particle diameter of the starting organic compound [1] | other results
COc1ccc2c(c1)c(CC(=O)O)c(C)n2C(=O)c1ccc(Cl)cc1 [Comparative Example 1, indomethacin] | 1,060 nm |  | 
CC1=C(/C=C/C(C)=C/C=C/C(C)=C/C=C/C=C(C)/C=C/C=C(C)/C=C/C2=C(C)CCCC2(C)C)C(C)(C)CCC1 [Comparative Example 3, β-carotene] | 570 nm |  | 
CCCCCCCCOc1c(O)c2ccc(NC(=O)C=Cc3cc(OC)c(O)c(OC)c3)cc2n(C)c1=O [Comparative Example 6, 7-(3,5-dimethoxy-4-hydroxycinnamoylamino)-3-octyloxy-4-hydroxy-1-methyl-2(1H)-quinolinone] | 620 nm |  | 
CCCCCCCCOc1c(O)c2ccc(NC(=O)C=Cc3cc(OC)c(O)c(OC)c3)cc2n(C)c1=O [Comparative Example 7, 7-(3,5-dimethoxy-4-hydroxycinnamoylamino)-3-octyloxy-4-hydroxy-1-methyl-2(1H)-quinolinone] | 128 nm |  | 
Clc1ccc(COC(Cn2ccnc2)c2ccc(Cl)cc2Cl)c(Cl)c1 (stereo not drawn) [Comparative Example 8, miconazole] | 651 nm |  | crystallinity (X-ray diffraction) [2]: amorphous
COc1cc(C(=O)NS(=O)(=O)c2ccccc2C)ccc1Cc1cn(C)c2ccc(NC(=O)OC3CCCC3)cc12 [Comparative Example 13, zafirlukast] | 558 nm |  | 
CC(C)Cc1ccc(C(C)C(=O)O)cc1 (stereo not drawn) [Comparative Example 14, ibuprofen] | 1,900 nm |  | 
CCCCCCCCOc1c(O)c2ccc(NC(=O)C=Cc3cc(OC)c(O)c(OC)c3)cc2n(C)c1=O [Example 8, 7-(3,5-dimethoxy-4-hydroxycinnamoylamino)-3-octyloxy-4-hydroxy-1-methyl-2(1H)-quinolinone] |  |  | crystallinity (X-ray diffraction) [2]: crystalline structures
CC(=O)OCC(=O)[C@@]1(O)CC[C@H]2[C@@H]3CCC4=CC(=O)CC[C@]4(C)[C@H]3C(=O)C[C@@]21C [cortisone acetate] |  | 1,060 nm | Ave. Diameter before pulverization (nm) ([1]; cortisone acetate, Example 24): 1,060 nm; Ave. Diameter after pulverization (nm) ([1]; cortisone acetate, polyol Diethylene glycol): 480 nm; Ave. Diameter after pulverization (nm) ([1]; cortisone acetate, polyol Glycerin): 260 nm; Ave. Diameter after pulverization (nm) ([1]; cortisone acetate, polyol Polyethylene glycol): 590 nm; Ave. Diameter after pulverization (nm) ([1]; cortisone acetate, polyol Propylene glycol): 450 nm
CC(C)Cc1ccc(C(C)C(=O)O)cc1 (stereo not drawn) [ibuprofen] |  | 18,050 nm | 
COc1ccc2c(c1)c(CC(=O)O)c(C)n2C(=O)c1ccc(Cl)cc1 [indomethacin] |  | 3,980 nm | 
Clc1ccc(COC(Cn2ccnc2)c2ccc(Cl)cc2Cl)c(Cl)c1 (stereo not drawn) [miconazole] |  | 10,900 nm | 
CCCCCCCCOc1c(O)c2ccc(NC(=O)C=Cc3cc(OC)c(O)c(OC)c3)cc2n(C)c1=O [quinolinone derivative, 7-(3,5-dimethoxy-4-hydroxycinnamoylamino)-3-octyloxy-4-hydroxy-1-methyl-2(1H)-quinolinone] |  | 1,280 nm | crystallinity (X-ray diffraction) [2]: crystalline structures
COc1cc(C(=O)NS(=O)(=O)c2ccccc2C)ccc1Cc1cn(C)c2ccc(NC(=O)OC3CCCC3)cc12 [zafirlukast] |  | 5,347 nm | 
CC1=C(/C=C/C(C)=C/C=C/C(C)=C/C=C/C=C(C)/C=C/C=C(C)/C=C/C2=C(C)CCCC2(C)C)C(C)(C)CCC1 [β-carotene] |  | 1,720 nm | 

Reference: patent US8226983B2, “Method for producing pulverized organic compound particle” (Activus Pharma Co., Ltd., priority 2007, dated 2012)
